Experimental data taken from paper PMC6130795 (ACS Omega, 2018).

Target: T1, CDC25B (Homo sapiens, UniProt P30305)
T1 sequence (P30305 431-538 limits assumed): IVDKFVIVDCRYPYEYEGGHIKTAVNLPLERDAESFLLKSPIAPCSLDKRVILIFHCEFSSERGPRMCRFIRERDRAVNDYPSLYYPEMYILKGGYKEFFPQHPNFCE
Assay: In vitro CDC25B enzyme inhibition assay
Type: biochemical

CDC25B IC50: 0.13 ± 0.02 µg/mL
Compound: [Na+].[Na+].[Na+].[O]=[V]([O-])([O-])[O-] [Na3VO4]
